Laboratory results taken from US20260248918A1, “COMPOSITIONS AND METHODS OF SUPPRESSING AVERSIVENESS OF PHARMACEUTICALS AND INGESTIBLE MATERIALS” (Monell Chemical Senses Center, priority 2019, published 2026).
Counter-ions that a name gives are not always drawn.

What was measured:
[1] = target: T1, TAS2R14 (Homo sapiens, UniProt Q9NYV8); experiment: Response profile of TAS2Rs to target compounds: TAS2R14; assay type: cell-based; conditions: FIG. 4: Praziquantel 0.75 mM, L-praziquantel 0.1 mM, Dihydroartemisinin 2 mM (not fully dissolved), Piperaquine 0.5 mM, TAF 1 mM, Ritonavir 1 mM, Zinc sulfate 20 mM
T1 sequence (Q9NYV8 1-317): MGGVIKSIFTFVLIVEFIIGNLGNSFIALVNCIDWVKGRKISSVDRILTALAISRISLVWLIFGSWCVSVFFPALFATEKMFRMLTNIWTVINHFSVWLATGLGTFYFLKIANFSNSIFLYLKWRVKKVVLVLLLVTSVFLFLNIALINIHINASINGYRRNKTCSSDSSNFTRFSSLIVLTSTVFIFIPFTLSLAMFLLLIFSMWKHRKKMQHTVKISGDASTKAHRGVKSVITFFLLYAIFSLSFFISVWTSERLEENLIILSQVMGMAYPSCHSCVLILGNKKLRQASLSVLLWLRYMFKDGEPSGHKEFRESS
Experimental: (§1) FIG. 4 is a table showing response profiles of TAS2Rs to indicated target compounds at indicated concentrations. Praziquantel: 0.75 mM, L-praziquantel: 0.1 mM, Zinc sulfate: 20 mM, Dihydroartemisinin: 2 mM (not fully dissolved), Piperaquine, 0.5 mM, Tenofovir (TAF), 1 mM and Ritonavir, 1 mM. Symbols: + means that there was activation; a − negative sign means that there was no significant activation of the receptor; a “larger + sign” means that receptor(s) were most sensitive to the compound (activated at lower concentrations.
(§2) Using a primary hTBEC platform, a high throughput screening (HTS) was conducted with more than 2,000 small molecular weight purified phytochemicals and botanical extracts. The screen identified 40 antagonists that suppressed taste cell activation by target APIs. […] TAS2R1 is responsive to piperaquine and tenofovir. (See FIG. 4)

[2] = target: T2, TAS2R39 (Homo sapiens, UniProt P59534); conditions: reported in Roland et al. 2014, data not shown; cited from earlier work
T2 sequence (P59534 1-338): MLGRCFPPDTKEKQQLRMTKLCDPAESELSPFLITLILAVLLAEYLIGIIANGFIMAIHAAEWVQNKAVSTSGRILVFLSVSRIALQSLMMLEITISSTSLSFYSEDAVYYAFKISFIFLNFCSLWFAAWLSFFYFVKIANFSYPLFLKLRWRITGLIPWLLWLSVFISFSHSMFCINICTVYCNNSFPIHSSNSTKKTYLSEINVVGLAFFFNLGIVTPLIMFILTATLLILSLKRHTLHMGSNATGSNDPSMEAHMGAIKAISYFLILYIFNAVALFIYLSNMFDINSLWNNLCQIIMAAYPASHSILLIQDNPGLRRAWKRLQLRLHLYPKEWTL

[3] = target: T2, TAS2R39; experiment: Response profile of TAS2Rs to target compounds: TAS2R39; assay type: cell-based; parameters: expressed in transfected cells; host or cells: HEK; conditions: FIG. 4: Piperaquine 0.5 mM, Tenofovir (TAF) 1 mM, Dihydroartemisinin 2 mM (not fully dissolved)
Experimental: as §1, §2

[4] = target: T3, TAS2R1 (Homo sapiens, UniProt Q9NYW7); experiment: Response profile of TAS2Rs to target compounds: TAS2R1; assay type: cell-based; conditions: FIG. 4: Piperaquine 0.5 mM, Tenofovir (TAF) 1 mM
T3 sequence (Q9NYW7 1-299): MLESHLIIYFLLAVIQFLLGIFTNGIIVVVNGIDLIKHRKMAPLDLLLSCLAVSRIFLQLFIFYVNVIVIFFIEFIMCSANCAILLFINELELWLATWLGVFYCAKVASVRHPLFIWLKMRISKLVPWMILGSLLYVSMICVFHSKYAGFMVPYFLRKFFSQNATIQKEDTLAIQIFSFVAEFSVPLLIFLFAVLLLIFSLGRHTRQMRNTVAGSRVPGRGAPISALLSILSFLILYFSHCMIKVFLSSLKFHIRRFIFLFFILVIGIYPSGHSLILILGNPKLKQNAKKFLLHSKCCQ
Experimental: as §1, §2

[5] = test system: human subjects; experiment: Human sensory testing (gLMS) of API bitterness with blocker, as pre-rinse or admixture; assay type: in vivo; conditions: added as sensory excipients to APIs
Excerpt: Methods of evaluating the sensory properties of the API and admixtures with the blocker compounds of Formula A are adopted from Breslin PA, and Tharp CD, “Reduction of saltiness and bitterness after a chlorhexidine rinse,” Chem Senses. 2001 February; 26(2):105-16. More details are illustrated below.
Subjects participate in the study after providing informed consent. Gender of the subjects is balanced between male and female. The subjects are adults with ages ranging from 20 years old to 50 years old. […] The participants are asked to refrain from eating, drinking, or chewing gum for 1 hr prior to testing. Subjects are trained to use the General Labeled Magnitude Scale (gLMS) following standard published procedures. See. e.g., Breslin P A, and Tharp C D. “Reduction of saltiness and bitterness after a chlorhexidine rinse,” Chem Senses. 2001 February; 26(2): 105-16; Keast and Breslin, “Bitterness suppression with zinc sulfate and Na-cyclamate: a model of combined peripheral and central neural approaches to flavor modification.” Pharm Res. 2005 November; 22(11):1970-7. Epub 2005 Aug. 26; Green et al, “Evaluating the ‘Labeled Magnitude Scale’ for measuring sensations of taste and smell.” Chem Senses. 1996 June; 21(3):323-34; Barry G. Green, et al, “Derivation and evaluation of a semantic scale of oral sensation magnitude with apparent ratio properties,” Chemical Senses, Volume 18, Issue 6, 1 Dec. 1993, Pages 683-702; and Bartoshuk L M, “Comparing sensory experiences across individuals: recent psychophysical advances illuminate genetic variation in taste perception.” Chem Senses. 2000 August; 25(4):447-60.
The selected API (in racemic or L form as applicable) is diluted/dissolved in deionized (di) filtered water upon use into various concentrations. […] The API is prepared and dissolved in deionized filtered water or in […] 6-methylflavone to a final concentration. All solutions are stored on ice or at 4° C. to 8° C. and brought up to room temperature prior to testing.
The following testing protocol is performed. The tested solutions are provided to the subjects in random order. Subjects rinsed with di water at least four times over a 2-minute period prior to tasting each solution. The subjects are instructed to wear nose clips to eliminate olfactory input, pour the whole solution in their mouth for 3-5 seconds, and rate the perceived sensation (including bitterness, sourness, astringency, burning, stinging and nausea) intensity of the solution while it remained in the mouth, prior to expectorating. Taste intensity is recorded on a computerized gLMS, analyzed and plotted.

## O=C(C1CCCCC1)N1CC(=O)N2CCc3ccccc3C2C1 (racemic) [Praziquantel]
[1]
  Activation of TAS2R14: one of most responsive receptors

## COc1ccc2oc(-c3ccccc3)cc(=O)c2c1 [6-methoxyflavone]
[2]
  Inhibition of hTAS2R39 activation: unable to inhibit

## Clc1ccc2c(N3CCN(CCCN4CCN(c5ccnc6cc(Cl)ccc56)CC4)CC3)ccnc2c1 [Piperaquine]
[3]
  Activation of TAS2R39: one of the most responsive receptors
[4]
  Activation of TAS2R1: responsive

## O=C(C1CCCCC1)N1CC(=O)N2CCc3ccccc3[C@@H]2C1 [L-praziquantel]
[1]
  Activation of TAS2R14: one of most responsive receptors

## sodium
[5]
  Reduction of API bitterness by sensory excipients: significantly reduce

## CC(C)c1nc(CN(C)C(=O)N[C@H](C(=O)N[C@@H](Cc2ccccc2)C[C@H](O)[C@H](Cc2ccccc2)NC(=O)OCc2cncs2)C(C)C)cs1 [Ritonavir]
[1]
  Activation of TAS2R14: one of most responsive receptors

## zinc
[5]
  Reduction of API bitterness by sensory excipients: significantly reduce

## CC(C)OC(=O)[C@H](C)N[P@](=O)(CO[C@H](C)Cn1cnc2c(N)ncnc21)Oc1ccccc1 [TAF, tenofovir alafenamide fumarate]
[3]
  Activation of TAS2R39: one of the most responsive receptors
[4]
  Activation of TAS2R1: responsive
